Data from PubChem BioAssay AID256 (DTP/NCI, 2004).
Values joined by “and” are separate entries in the source; they are usually repeats but may differ in a detail not shown here. Identical values can stand only once. Inconclusive results and toxic doses are left out. The calls were made as follows: active = survival T/C of 150% or more; inactive = T/C below 125% in these data.

Test system: CD2F1 mice, L1210 leukemia ip, survival T/C
Test: NCI In Vivo Anticancer Drug Screen. Data for tumor model L1210 Leukemia (intraperitoneal) in CD2F1 (CDF1) mice
Conditions: higher = longer survival
Outline: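 Mice carrying a transplanted tumor received test compound or vehicle alone. The value is the measurement in the treated group divided by that in the vehicle-treated control group.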

[1] = endpoint: mean survival time, dose: 100.0 mg/kg/injection, schedule: Q01DX001 (ip), vehicle: saline
[2] = endpoint: mean survival time, dose: 200.0 mg/kg/injection, schedule: Q01DX001 (ip), vehicle: saline
[3] = endpoint: mean survival time, dose: 400.0 mg/kg/injection, schedule: Q01DX001 (ip), vehicle: saline
[4] = endpoint: mean survival time, dose: 100.0 mg/kg/injection, schedule: Q01DX001 (ip), vehicle: saline with Tween-80
[5] = endpoint: mean survival time, dose: 100.0 mg/kg/injection, schedule: Q04DX002 (ip), vehicle: saline with Tween-80
[6] = endpoint: mean survival time, dose: 200.0 mg/kg/injection, schedule: Q01DX001 (ip), vehicle: saline with Tween-80
[7] = endpoint: mean survival time, dose: 400.0 mg/kg/injection, schedule: Q01DX001 (ip), vehicle: saline with Tween-80
[8] = endpoint: mean survival time, dose: 100.0 mg/kg/injection, schedule: Q04DX003 (ip), vehicle: saline with Tween-80
[9] = endpoint: mean survival time, dose: 200.0 mg/kg/injection, schedule: Q04DX003 (ip), vehicle: saline with Tween-80
[10] = endpoint: mean survival time, dose: 400.0 mg/kg/injection, schedule: Q04DX003 (ip), vehicle: saline with Tween-80
[11] = endpoint: mean survival time, dose: 6.25 mg/kg/injection, schedule: Q01DX009 (ip), vehicle: saline with Tween-80
[12] = endpoint: mean survival time, dose: 12.5 mg/kg/injection, schedule: Q01DX009 (ip), vehicle: saline with Tween-80
[13] = endpoint: mean survival time, dose: 100.0 mg/kg/injection, schedule: Q01DX009 (ip), vehicle: saline with Tween-80
[14] = endpoint: mean survival time, dose: 200.0 mg/kg/injection, schedule: Q01DX009 (ip), vehicle: saline with Tween-80
[15] = endpoint: mean survival time, dose: 400.0 mg/kg/injection, schedule: Q01DX009 (ip), vehicle: saline with Tween-80
[16] = endpoint: mean survival time, dose: 12.5 mg/kg/injection, schedule: Q04DX003 (ip), vehicle: saline with Tween-80
[17] = endpoint: mean survival time, dose: 25.0 mg/kg/injection, schedule: Q04DX003 (ip), vehicle: saline with Tween-80

Measured: T/C

CCOC(=O)C=C(c1ccc(OC)c(OC)c1)c1ccc(OC)c(OC)c1
inactive: [1] 108 % of control | [2] 100 % of control | [3] 102 % of control

COc1cc(C=C(c2ccc(N(C)C)cc2)c2ccc(N(C)C)cc2)c(OC)c2ccccc12
inactive: [4] 102 % of control | [5] 90 % of control | [6] 101 % of control | endpoint: mean survival time, dose: 200.0 mg/kg/injection, schedule: Q04DX002 (ip), vehicle: saline with Tween-80 87 % of control | [7] 90 % of control

Cc1nc(-c2ccccc2)[nH]c(=O)c1CCO
inactive: [8] 100 % of control | [9] 100 % of control | [10] 111 % of control

CC(CC(=O)Nc1ccccc1)C(=O)O (centres undefined)
inactive: [8] 103 % of control | [9] 101 % of control | [10] 106 % of control

Cn1c(=O)c2c(nc(N3CCOCC3)n2CC(O)CF)n(C)c1=O (centres undefined)
inactive: endpoint: mean survival time, dose: 12.5 mg/kg/injection, schedule: Q01DX005 (ip), vehicle: distilled water + Tween-80 95 % of control | endpoint: mean survival time, dose: 25.0 mg/kg/injection, schedule: Q01DX005 (ip), vehicle: distilled water + Tween-80 98 % of control | endpoint: mean survival time, dose: 50.0 mg/kg/injection, schedule: Q01DX005 (ip), vehicle: distilled water + Tween-80 103 % of control | endpoint: mean survival time, dose: 100.0 mg/kg/injection, schedule: Q01DX005 (ip), vehicle: distilled water + Tween-80 97 % of control | endpoint: mean survival time, dose: 200.0 mg/kg/injection, schedule: Q01DX005 (ip), vehicle: distilled water + Tween-80 104 % of control

O=C(C[n+]1cccc2ccccc21)c1ccc([N+](=O)[O-])cc1
inactive: endpoint: mean survival time, dose: 25.0 mg/kg/injection, schedule: Q04DX002 (ip), vehicle: saline with Tween-80 102 % of control | endpoint: mean survival time, dose: 50.0 mg/kg/injection, schedule: Q04DX002 (ip), vehicle: saline with Tween-80 98 % of control | [5] 102 % of control

Cc1ccc(C(=O)C=C(C(F)(F)F)C(F)(F)F)cc1
inactive: [11] 102 % of control | [12] 98 % of control | endpoint: mean survival time, dose: 25.0 mg/kg/injection, schedule: Q01DX009 (ip), vehicle: saline with Tween-80 98 % of control

CC(C)C1CC2CCC3C(C)(C(=O)O)CCCC3(C)C2CC1CO (centres undefined)
inactive: [13] 87 % of control | [14] 91 % of control | [15] 86 % of control

CC(C)(C)C(=O)CC(=O)C(C)(C)C.CC(C)(C)C(=O)CC(=O)C(C)(C)C.CC(C)(C)C(=O)CC(=O)C(C)(C)C.[Nd]
inactive: [8] 101 % of control | [9] 95 % of control | [10] 95 % of control

CC(=O)Oc1c(Br)cc(Br)cc1-c1ccccc1
inactive: [1] 95 % of control | endpoint: mean survival time, dose: 100.0 mg/kg/injection, schedule: Q04DX003 (ip), vehicle: saline 117 % of control | [2] 94 % of control | endpoint: mean survival time, dose: 200.0 mg/kg/injection, schedule: Q04DX003 (ip), vehicle: saline 105 % of control | [3] 101 % of control | endpoint: mean survival time, dose: 400.0 mg/kg/injection, schedule: Q04DX003 (ip), vehicle: saline 114 % of control

COc1ccc2occc2c1
inactive: [8] 94 % of control | [9] 94 % of control | [10] 91 % of control

Nc1nc(=O)n(C2OC(CO)C(O)C2F)cc1I (centres undefined)
inactive: endpoint: median survival time, dose: 12.5 mg/kg/injection, schedule: Q01DX005 (ip), vehicle: saline 103 % of control | endpoint: median survival time, dose: 25.0 mg/kg/injection, schedule: Q01DX005 (ip), vehicle: saline 102 % of control | endpoint: median survival time, dose: 50.0 mg/kg/injection, schedule: Q01DX005 (ip), vehicle: saline 104 % of control | endpoint: median survival time, dose: 100.0 mg/kg/injection, schedule: Q01DX005 (ip), vehicle: saline 97 % of control | endpoint: median survival time, dose: 200.0 mg/kg/injection, schedule: Q01DX005 (ip), vehicle: saline 103 % of control

COC(=O)[C@@]12OC[C@]34[C@H]([C@@H](O)[C@@H]1O)[C@@]1(C)CC(=O)C(O)=C(C)[C@@H]1C[C@H]3OC(=O)[C@H](OC(=O)/C=C(\C)C(C)C)[C@@H]24
inactive: endpoint: mean survival time, dose: 125.0 micrograms/kg/injection, schedule: Q01DX009 (ip), vehicle: saline + alcohol 120 % of control | endpoint: mean survival time, dose: 250.0 micrograms/kg/injection, schedule: Q01DX009 (ip), vehicle: saline + alcohol 106 % of control | endpoint: mean survival time, dose: 500.0 micrograms/kg/injection, schedule: Q01DX009 (ip), vehicle: saline + alcohol 112 % of control | endpoint: mean survival time, dose: 1000.0 micrograms/kg/injection, schedule: Q01DX009 (ip), vehicle: saline + alcohol 120 % of control | endpoint: median survival time, dose: 0.25 mg/kg/injection, schedule: Q01DX009 (ip), vehicle: saline + alcohol 120 % of control and 122 % of control | endpoint: median survival time, dose: 0.5 mg/kg/injection, schedule: Q01DX009 (ip), vehicle: saline + alcohol 120 % of control

C=CC(=O)O
inactive: endpoint: mean survival time, dose: 1.56 mg/kg/injection, schedule: Q04DX003 (ip), vehicle: saline with Tween-80 107 % of control | endpoint: mean survival time, dose: 3.12 mg/kg/injection, schedule: Q04DX003 (ip), vehicle: saline with Tween-80 109 % of control | [11] 97 % of control | endpoint: mean survival time, dose: 6.25 mg/kg/injection, schedule: Q04DX003 (ip), vehicle: Klucel (hydroxypropylcellulose) (HPC) 90 % of control | endpoint: mean survival time, dose: 6.25 mg/kg/injection, schedule: Q04DX003 (ip), vehicle: saline with Tween-80 101 % of control | endpoint: mean survival time, dose: 9.2 mg/kg/injection, schedule: Q01DX009 (ip), vehicle: acetone 89 % of control | [12] 92 % of control | endpoint: mean survival time, dose: 12.5 mg/kg/injection, schedule: Q04DX003 (ip), vehicle: Klucel (hydroxypropylcellulose) (HPC) 96 % of control | [16] 91 % of control | [17] 97 % of control

CC(=O)NNC(=O)c1ccc(Br)cc1
inactive: [13] 107 % of control | [14] 119 % of control

O=C1CNC(=O)N1CN1CCOCC1
inactive: endpoint: median survival time, dose: 50.0 mg/kg/injection, schedule: Q01DX009 (ip), vehicle: Klucel (hydroxypropylcellulose) (HPC) 108 % of control | endpoint: median survival time, dose: 100.0 mg/kg/injection, schedule: Q01DX009 (ip), vehicle: Klucel (hydroxypropylcellulose) (HPC) 116 % of control | endpoint: median survival time, dose: 200.0 mg/kg/injection, schedule: Q01DX009 (ip), vehicle: Klucel (hydroxypropylcellulose) (HPC) 116 % of control | endpoint: median survival time, dose: 400.0 mg/kg/injection, schedule: Q01DX009 (ip), vehicle: Klucel (hydroxypropylcellulose) (HPC) 117 % of control

CCCCOc1c(OCCCC)c(=O)c1=O
inactive: [1] 108 % of control | endpoint: mean survival time, dose: 178.0 mg/kg/injection, schedule: Q01DX001 (ip), vehicle: saline 102 % of control | [2] 108 % of control | endpoint: mean survival time, dose: 267.0 mg/kg/injection, schedule: Q01DX001 (ip), vehicle: saline 96 % of control | [3] 106 % of control | endpoint: mean survival time, dose: 600.0 mg/kg/injection, schedule: Q01DX001 (ip), vehicle: saline 98 % of control

CCCCS(=O)C(Cl)(CCC)C(C)(C)O (centres undefined)
inactive: [8] 97 % of control | [9] 93 % of control | [10] 97 % of control

C=CCN(CC=C)CCNc1cc(C)nc(Nc2nc3ccc(Cl)cc3[nH]2)n1
inactive: [4] 94 % of control | [13] 86 % of control | [6] 92 % of control | [14] 93 % of control | [7] 94 % of control | [15] 100 % of control

CCCCC(CC)C(O)CC(O)CC (centres undefined)
inactive: [8] 92 % of control | [9] 91 % of control | [10] 91 % of control

Cc1ccc([NH-])c(Cl)c1.Cc1ccc([NH-])c(Cl)c1.[Cl][Pt+2][Cl]
inactive: [16] 95 % of control | [17] 97 % of control | endpoint: mean survival time, dose: 50.0 mg/kg/injection, schedule: Q04DX003 (ip), vehicle: saline with Tween-80 97 % of control | [8] 97 % of control | [9] 89 % of control

C#CCOC1CCCCC1O (centres undefined)
inactive: endpoint: mean survival time, dose: 100.0 mg/kg/injection, schedule: Q04DX003 (ip), vehicle: acetone 101 % of control

O=C(O)CNC(=O)C(CN1CC(=O)OC1c1ccc([N+](=O)[O-])cc1)N1C(=O)c2ccccc2C1=O (centres undefined)
inactive: endpoint: mean survival time, dose: 100.0 mg/kg/injection, schedule: Q04DX003 (ip), vehicle: saline sonified 92 % of control | endpoint: mean survival time, dose: 200.0 mg/kg/injection, schedule: Q04DX003 (ip), vehicle: saline sonified 88 % of control | endpoint: mean survival time, dose: 400.0 mg/kg/injection, schedule: Q04DX003 (ip), vehicle: saline sonified 92 % of control
